Measured values: PMC11148080, “Ru(II)-based complexes containing 2-thiouracil derivatives suppress liver cancer stem cells by targeting NF-κB and Akt/mTOR signaling” (Cell Death Discovery, 2024)

Assays:
HepG2 cell xenografts = experiment: HCC tumor growth xenograft model; assay type: in vivo, C.B-17 SCID mice; conditions: 21 days; for mean tumor weight: negative control 981 mg
Method: A total of 48 C.B-17 SCID mice (male and female, 20–25 g) were obtained from the FIOCRUZ-BA animal facility (Salvador, Bahia, Brazil) in accordance with experimental methods authorized by the local Animal Ethics Committee (#22/2021). All mice were fed a standard pellet diet (food and water available ad libitum) and housed in an artificially lit room (12 h dark/light cycle).
HepG2 cells (10^7 cells/500 μL) were implanted subcutaneously into the left front armpit of mice as previously described. The mice were administered intraperitoneally (200 μL/animal) once a day for 3 weeks. […] The animals were euthanized with an anesthetic overdose (thiopental, 100 mg/kg) 1 day after treatment, and the tumors were removed, weighed, and processed for histological examination.

4T1 = experiment: Alamar Blue cytotoxicity; assay type: cell-based, mouse; conditions: for IC50: 4T1, 72 h
Method: (§1) The Alamar Blue assay was used to measure cell viability, as previously described. Adherent cells were seeded in 96-well plates at a density of 7 × 10^3 cells per well, and suspended cells were seeded at 3 × 10^4 cells per well. Drugs were added to each well after overnight incubation for adherent cells or immediately after seeding for suspension cells, and incubation continued for an additional 72 h. The positive control included doxorubicin (Laboratorio IMA S.A.I.C., Buenos Aires, Argentina). Four hours (for cell lines) or 24 h (for primary cultures) before the end of incubation, 20 μL of resazurin (30 μM) (Sigma‒Aldrich Co. St. Louis, MO, USA) was added to each well. The absorbance at 570 and 600 nm was measured using a SpectraMax 190 microplate reader (Molecular Devices, Sunnyvale, CA, USA).

B16-F10 = experiment: Alamar Blue cytotoxicity; assay type: cell-based, mouse; conditions: for IC50: B16-F10, 72 h
Method: as §1

HepG2 cells [1] = experiment: Light scattering (FSC/SSC) by flow cytometry; assay type: cell-based, human; conditions: 24, 48, 72 h
From the text: Light scattering characteristics measured by flow cytometry were used to analyze cellular parameters such as size and complexity/granularity in HepG2 cells treated with complexes 1 and 2 (Fig. S6A–S6F). Forward light scattering (FSC) was employed as a cell size metric in this experiment, while side scattering (SSC) was used to determine cell complexity/granularity. […] Both morphological changes are associated with cellular apoptosis, corroborating the findings observed in cells stained with May-Grunwald-Giemsa.
(§2) For all flow cytometry analyses, cellular fluorescence was measured using a BD LSRFortessa cytometer, BD FACSDiva software (BD Biosciences) and FlowJo software 10 (FlowJo LLC; Ashland, OR, USA). A minimum of 10,000 events were obtained per sample for intracellular staining, and a minimum of 30,000 events per sample were acquired for cell surface protein staining. Doublets were removed using FSC-A vs FCS-H and SCC-A vs SCC-H. Cellular debris was excluded from the analysis.

HepG2 cells [2] = experiment: Colony-forming assay; assay type: cell-based, human; conditions: concentration- and time-dependent; 24, 48, 72 h treatment
Method: A total of 500 cells were plated in 6-well plates with 4 mL of complete medium and treated with the drugs for 24, 48, or 72 h to determine clonogenic potential. The medium was subsequently replaced with fresh drug-free medium, and the plates were cultivated for 14 days. After that, the cells were fixed in methanol and stained with 0.5% crystal violet. Using an optical microscope (Nikon, TS100), the number of colonies with >50 cells was counted.

PBMC = experiment: Alamar Blue cytotoxicity, noncancerous cells; assay type: cell-based, human; conditions: 72 h
Method: as §1, with “USA). […]” for “USA).”
PBMC heath peripheral blood mononuclear human primary cell […]
Then, the PBMCs were resuspended in RPMI 1640 or DMEM-F12 supplemented with 20% FBS and 1% antibiotics. The cells were plated at 5 × 10^5 cells/well. Concanavalin A (10 μg/mL, Sigma‒Aldrich) was used as a mitogen to trigger cell division in T lymphocytes and was added at the beginning of the culture. The Research Ethics Committee of the Oswaldo Cruz Foundation

HepG2 cells [3] = experiment: May-Grunwald-Giemsa staining morphology; assay type: cell-based, human; conditions: 24, 48, 72 h
Method: Cells were grown on coverslips and stained with May-Grunwald-Giemsa. Subsequently, we employed light microscopy to examine and analyze morphological changes.

HepG2 cells [4] = experiment: Annexin V-FITC/PI apoptosis detection; assay type: cell-based, human; conditions: for apoptosis (annexin V-FITC+ cells): HepG2, 72 h, control 4.8%; for percentage of necrotic cells: 24, 48, 72 h
Method: For apoptosis detection, cell viability was quantified using Annexin V-FITC/PI (FITC Annexin V Apoptosis Detection Kit I, BD Biosciences, San Jose, CA, USA) according to the manufacturer’s instructions. The cells were also stained with rhodamine 123 (5 μg/mL, Sigma Aldrich Co.) for 15 min at 37 °C in the dark to assess the mitochondrial transmembrane potential. After the cells were washed, they were incubated in saline for 30 min in the dark at 37 °C and analyzed by flow cytometry. For all flow cytometry analyses, cellular fluorescence was measured using a BD LSRFortessa cytometer, BD FACSDiva software (BD Biosciences) and FlowJo software 10 (FlowJo LLC; Ashland, OR, USA). A minimum of 10,000 events were obtained per sample for intracellular staining, and a minimum of 30,000 events per sample were acquired for cell surface protein staining. Doublets were removed using FSC-A vs FCS-H and SCC-A vs SCC-H. Cellular debris was excluded from the analysis.

HepG2 cells [5] = experiment: CD133 and CD44 expression by flow cytometry; assay type: cell-based, human; conditions: 24 h; for percentage of HepG2 CD133-positive cells: 8 μM complex 1 or 6 μM complex 2
Method: To stain the cell surface proteins, the cells were washed with an incubation buffer (0.5% bovine serum albumin in PBS), and then antibodies were added and incubated for 1 h at room temperature. The cells were then washed with PBS, and the fluorescence signal was measured by flow cytometry. CD133 and CD44 were quantified in YO-PRO-1 (Sigma‒Aldrich Co.) negative cells.
as §2

| Compound | tumor inhibition (HepG2 cell xenografts; 2 mg/kg i.p. once a day) | mean tumor weight (HepG2 cell xenografts; 2 mg/kg i.p. once a day) | tumor inhibition (HepG2 cell xenografts; 4 mg/kg i.p. once a day) | mean tumor weight (HepG2 cell xenografts; 4 mg/kg i.p. once a day) | IC50 (4T1) | IC50 (B16-F10) | cell size/granularity (FSC decrease, SSC increase) (HepG2 cells [1]) | clonogenic viability of HepG2 cells (HepG2 cells [2]) | IC50 (PBMC) | cell morphology (May-Grunwald-Giemsa) (HepG2 cells [3]) | percentage of necrotic cells (HepG2 cells [4]; HepG2) | percentage of HepG2 CD133-positive cells (HepG2 cells [5]) | also measured |
| --- | --- | --- | --- | --- | --- | --- | --- | --- | --- | --- | --- | --- | --- |
| F[P-](F)(F)(F)(F)F.O=c1cc[nH]c([S][Ru+])n1.c1ccc(-c2ccccn2)nc1.c1ccc(P(c2ccccc2)c2ccccc2)cc1.c1ccc(P(c2ccccc2)c2ccccc2)cc1 [Complex 1, trans-[Ru(2TU)(PPh3)2(bipy)]PF6] | 35.3% | 635 mg | 53.6% | 455 mg | 11.7 µM | 3.04 µM | caused cell shrinkage | significantly decreased | 14.2 µM | cell morphology changes that were associated with apoptosis | no significant increase | reduced | apoptosis (annexin V-FITC+ cells) (HepG2 cells [4]; 2 µM): 9.0%; apoptosis (annexin V-FITC+ cells) (HepG2 cells [4]; 4 µM): 48.9%; apoptosis (annexin V-FITC+ cells) (HepG2 cells [4]; 8 µM): 76.1% |
| Cc1cc(=O)nc([S][Ru+])[nH]1.F[P-](F)(F)(F)(F)F.c1ccc(-c2ccccn2)nc1.c1ccc(P(c2ccccc2)c2ccccc2)cc1.c1ccc(P(c2ccccc2)c2ccccc2)cc1 [Complex 2, trans-[Ru(6m2TU)(PPh3)2(bipy)]PF6] | 63.6% | 358 mg | 65.4% | 340 mg | 4.52 µM | 2.75 µM | caused cell shrinkage | significantly decreased | 11.7 µM | cell morphology changes that were associated with apoptosis | no significant increase | reduced | apoptosis (annexin V-FITC+ cells) (HepG2 cells [4]; 1.5 µM): 9.1%; apoptosis (annexin V-FITC+ cells) (HepG2 cells [4]; 3 µM): 40.7%; apoptosis (annexin V-FITC+ cells) (HepG2 cells [4]; 6 µM): 76.9%; percentage of HepG2 CD44high cells (HepG2 cells [5]; 6 μM complex 2): reduced |
| COc1cccc2c1C(=O)c1c(O)c3c(c(O)c1C2=O)C[C@@](O)(C(=O)CO)C[C@@H]3O[C@H]1C[C@H](N)[C@H](O)[C@H](C)O1 [Doxorubicin] |  |  |  |  |  |  |  |  |  |  |  |  | tumor inhibition (HepG2 cell xenografts; 1 mg/kg i.p. once a day): 32.2%; mean tumor weight (HepG2 cell xenografts; 1 mg/kg i.p. once a day): 665 mg; Selectivity index (4T1; IC50 BJ/IC50 4T1): 1.21; Selectivity index (4T1; IC50 MRC-5/IC50 4T1): 1.11; Selectivity index (4T1; IC50 PBMC/IC50 4T1): 0.87; IC50 (4T1; Mus musculus): 1.53 µM; Selectivity index (B16-F10; IC50 BJ/IC50 B16-F10): 4.30; Selectivity index (B16-F10; IC50 MRC-5/IC50 B16-F10): 3.95; Selectivity index (B16-F10; IC50 PBMC/IC50 B16-F10): 3.09; IC50 (B16-F10; Mus musculus): 0.43 µM; IC50 (PBMC; Homo sapiens): 1.33 µM; apoptosis (HepG2 cells [4]; HepG2, DOX 1 μM, positive control): also led to apoptosis |
